Laboratory results: US20160200733A1, “SUBSTITUTED THIENO[2,3-B]PYRIDINE-2-CARBOXAMIDE ANALOGS AS POSITIVE ALLOSTERIC MODULATORS OF THE MUSCARINIC ACETYLCHOLINE RECEPTOR M4” (Vanderbilt University, priority 2013, published 2016)
pEC50: −log10 of the molar value.

Molecular target: T1, mAChR hM4 (Homo sapiens, UniProt P08173)
T1 construct: expressed in transfected cells; host or cells: CHO-K1 (Chinese hamster ovary) cells
T1 sequence (P08173 1-479): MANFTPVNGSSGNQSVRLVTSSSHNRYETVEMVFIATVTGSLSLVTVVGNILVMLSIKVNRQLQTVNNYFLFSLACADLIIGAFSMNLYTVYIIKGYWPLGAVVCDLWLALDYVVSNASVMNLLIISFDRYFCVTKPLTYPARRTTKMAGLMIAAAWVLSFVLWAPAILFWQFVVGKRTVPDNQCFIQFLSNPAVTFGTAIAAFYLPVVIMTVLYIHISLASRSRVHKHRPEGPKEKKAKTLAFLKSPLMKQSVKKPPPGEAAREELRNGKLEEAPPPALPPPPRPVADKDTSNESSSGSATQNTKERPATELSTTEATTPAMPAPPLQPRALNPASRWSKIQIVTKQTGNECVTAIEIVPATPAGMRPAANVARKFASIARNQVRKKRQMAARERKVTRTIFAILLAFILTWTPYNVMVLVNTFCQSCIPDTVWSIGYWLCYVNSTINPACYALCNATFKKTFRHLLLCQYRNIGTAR
Assay: mAChR M4 cell-based functional assay (calcium flux, potentiation of EC20 acetylcholine response)
Conditions: mAChR hM4 cell-line; for pEC50: >10,000 estimated for low potency compounds lacking a plateau; for Emax at 30 µM: % ACh maximum at 30 μM
Source text: In one aspect, the disclosed compounds potentiate the agonist response (e.g., acetylcholine) of mAChR M4. In a further aspect, the disclosed compounds increase mAChR M4 response to non-maximal concentrations of agonist in the presence of compound compared to the response to agonist in the absence of compound. […] For example, activation of mAChR M4 activity can be determined by measurement of calcium flux in response to agonist, e.g. acetylcholine, in cells loaded with a Ca^2+-sensitive fluorescent dye (e.g., Fluo-4). In a further aspect, the calcium flux was measured as an increase in fluorescent static ratio. In a yet further aspect, positive allosteric modulator activity was analyzed as a concentration-dependent increase in the EC20 acetylcholine response (i.e. the response of mAChR M4 at a concentration of acetylcholine that yields 20% of the maximal response).
In one aspect, the disclosed compounds activate mAChR M4 response as an increase in calcium fluorescence in mAChR M4-transfected CHO-K1 cells in the presence of the compound, compared to the response of equivalent CHO-K1 cells in the absence of the compound. […] In a further aspect, the mAChR M4-transfected CHO-K1 cells are transfected with human mAChR M4. In a still further aspect, the mAChR M4-transfected CHO-K1 cells are transfected with rat mAChR M4.
Substituted 3-aminothieno[2,3-c]pyridine-2-carboxamide analogs were synthesized as described above. Activity (EC50 and Emax) was determined in the mAChR M4 cell-based functional assay as described above, and the data are shown in Table II for assays conducted using mAChR hM4 cell-line. The compound number corresponds to the compound numbers used in Table I.

pEC50 | Emax at 30 µM | Compound
< 5.00 | – | Cc1cc(C)c2c(C)c(C(=O)NCc3ccc(OC(F)(F)F)cc3)sc2n1 [Compound 21, 3,4,6-trimethyl-N-(4-(trifluoro-methoxy)benzyl)thieno[2,3-b]pyridine-2-carboxamide]
< 5.00 | 67% | Cc1cc(C)c2c(C)c(C(=O)NC3CCOC3)sc2n1 (stereo not drawn) [Compound 22, 3,4,6-trimethyl-N-(tetrahydrofuran-3-yl)thieno[2,3-b]pyridine-2-carboxamide]
< 5.00 | – | Cc1cc(C)c2c(C)c(C(=O)N3CCCC(F)(F)C3)sc2n1 [Compound 23, (3,3-difluoropiperidin-1-yl)(3,4,6-trimethylthieno[2,3-b]pyridin-2-yl)methanone]
< 5.00 | – | Cc1cc(C)c2c(C)c(C(=O)N3CCCC3)sc2n1 [Compound 24, pyrrolidin-1-yl(3,4,6-trimethylthieno[2,3-b]pyridin-2-yl)methanone]
< 5.00 | 60% | Cc1cc(C)c2c(C)c(C(=O)N[C@@H]3CCOC3)sc2n1 [Compound 25, (R)-3,4,6-trimethyl-N-(tetrahydrofuran-3-yl)thieno[2,3-b]pyridine-2-carboxamide]
< 5.00 | 44% | Cc1cc(C)c2c(C)c(C(=O)NC3CCOCC3)sc2n1 [Compound 26, 3,4,6-trimethyl-N-(tetrahydro-2H-pyran-4-yl)thieno[2,3-b]pyridine-2-carboxamide]
5.66 | 49% | CSc1ccc(CNC(=O)c2sc3nc(C)cc(C)c3c2C)cc1 [Compound 27, 3,4,6-trimethyl-N-(4-(methylthio)benzyl)thieno[2,3-b]pyridine-2-carboxamide]
< 5.00 | – | COc1ccc2c(c1)CCN(C(=O)c1sc3nc(C)cc(C)c3c1C)C2 [Compound 28, (6-methoxy-3,4-dihydroisoquinolin-2(1H)-yl)(3,4,6-trimethylthieno[2,3-b]pyridin-2-yl)methanone]
< 5.00 | – | COc1ccc(C(C)NC(=O)c2sc3nc(C)cc(C)c3c2C)cc1 (stereo not drawn) [Compound 29, N-(1-(4-methoxyphenyl)ethyl)-3,4,6-trimethylthieno[2,3-b]pyridine-2-carboxamide]
< 5.00 | – | Cc1cc(C)c2c(C)c(C(=O)NCCN3CCOCC3)sc2n1 [Compound 30, 3,4,6-trimethyl-N-(2-morpholinoethyl)thieno[2,3-b]pyridine-2-carboxamide]
5.66 | 57% | Cc1cc(C)c2c(C)c(C(=O)NCc3ccc4c(c3)OCCO4)sc2n1 [Compound 31, N-((2,3-dihydrobenzo[b][1,4]dioxin-6-yl)methyl)-3,4,6-trimethylthieno[2,3-b]pyridine-2-carboxamide]
< 5.00 | – | Cc1cc(C)c2c(Br)c(C(=O)NCc3ccc(S(C)(=O)=O)cc3)sc2n1 [Compound 32, 3-bromo-4,6-dimethyl-N-(4-(methylsulfonyl)benzyl)thieno[2,3-b]pyridine-2-carboxamide]
< 5.00 | – | Cc1cc(C)c2c(C#N)c(C(=O)NCc3ccc(S(C)(=O)=O)cc3)sc2n1 [Compound 33, 3-cyano-4,6-dimethyl-N-(4-(methylsulfonyl)benzyl)thieno[2,3-b]pyridine-2-carboxamide]
< 5.00 | – | Cc1cc(C)c2c(-c3ccccc3)c(C(=O)NCc3ccc(S(C)(=O)=O)cc3)sc2n1 [Compound 34, 4,6-dimethyl-N-(4-(methylsulfonyl)benzyl)-3-phenylthieno[2,3-b]pyridine-2-carboxamide]
< 5.00 | 41% | Cc1cc(C)c2cc(C(=O)NCc3ccc(S(C)(=O)=O)cc3)sc2n1 [Compound 35, 4,6-dimethyl-N-(4-(methylsulfonyl)benzyl)thieno[2,3-b]pyridine-2-carboxamide]
< 5.00 | – | Cc1cc(C)c2c(-c3cnn(C)c3)c(C(=O)NCc3ccc(S(C)(=O)=O)cc3)sc2n1 [Compound 36, 4,6-dimethyl-3-(1-methyl-1H-pyrazol-4-yl)-N-(4-(methylsulfonyl)benzyl)thieno[2,3-b]pyridine-2-carboxamide]

pEC50 | Emax at 30 µM | Compound
< 5.00 | – | Cc1cc(C)c2c(Br)c(C(=O)N(C)Cc3ccc(S(C)(=O)=O)cc3)sc2n1 [Compound 37, 3-bromo-N,4,6-trimethyl-N-(4-(methylsulfonyl)benzyl)thieno[2,3-b]pyridine-2-carboxamide]
5.39 | 67% | CCc1c(C(=O)NCc2ccc(S(C)(=O)=O)cc2)sc2nc(C)cc(C)c12 [Compound 38, 3-ethyl-4,6-dimethyl-N-(4-(methylsulfonyl)benzyl)thieno[2,3-b]pyridine-2-carboxamide]
< 5.00 | – | Cc1nc2sc(C(=O)NCc3ccc4c(c3)OCCO4)c(Br)c2c(C)c1Cl [Compound 39, 3-bromo-5-chloro-N-((2,3-dihydrobenzo[b][1,4]dioxin-6-yl)methyl)-4,6-dimethylthieno[2,3-b]pyridine-2-carboxamide]
< 5.00 | – | COc1ccc(C(C)NC(=O)c2sc3nc(C)c(Cl)c(C)c3c2Br)cc1 (stereo not drawn) [Compound 40, 3-bromo-5-chloro-N-(1-(4-methoxyphenyl)ethyl)-4,6-dimethylthieno[2,3-b]pyridine-2-carboxamide]
6.28 | 84% | Cc1nc2sc(C(=O)NC3COC3)c(Br)c2c(C)c1Cl [Compound 41, 3-bromo-5-chloro-4,6-dimethyl-N-(oxetan-3-yl)thieno[2,3-b]pyridine-2-carboxamide]
< 5.00 | – | Cc1nc2sc(C(=O)NCC3CC3)c(Br)c2c(C)c1Cl [Compound 42, 3-bromo-5-chloro-N-(cyclopropylmethyl)-4,6-dimethylthieno[2,3-b]pyridine-2-carboxamide]
< 5.00 | – | COc1ccc(CN(C)C(=O)c2sc3nc(C)c(Cl)c(C)c3c2Br)cc1 [Compound 43, 3-bromo-5-chloro-N-(4-methoxybenzyl)-N,4,6-trimethylthieno[2,3-b]pyridine-2-carboxamide]
6.23 | 54% | Cc1nc2sc(C(=O)NC3CCOC3)c(Br)c2c(C)c1Cl (stereo not drawn) [Compound 44, 3-bromo-5-chloro-4,6-dimethyl-N-(tetrahydrofuran-3-yl)thieno[2,3-b]pyridine-2-carboxamide]
< 5.00 | – | Cc1nc2sc(C(=O)NCc3ccc(S(C)(=O)=O)cc3)c(Br)c2c(C)c1Cl [Compound 45, 3-bromo-5-chloro-4,6-dimethyl-N-(4-(methylsulfonyl)benzyl)thieno[2,3-b]pyridine-2-carboxamide]
< 5.00 | – | Cc1nc2sc(C(=O)NCc3ccc4c(c3)CCO4)c(Br)c2c(C)c1Cl [Compound 46, 3-bromo-5-chloro-N-((2,3-dihydrobenzofuran-5-yl)methyl)-4,6-dimethylthieno[2,3-b]pyridine-2-carboxamide]
< 5.00 | – | COc1ccc(CNC(=O)c2sc3nc(C)c(Cl)c(C)c3c2Br)cc1 [Compound 47, 3-bromo-5-chloro-N-(4-methoxybenzyl)-4,6-dimethylthieno[2,3-b]pyridine-2-carboxamide]
6.24 | 54% | Cc1nc2sc(C(=O)NC3(C)COC3)c(Br)c2c(C)c1Cl [Compound 48, 3-bromo-5-chloro-4,6-dimethyl-N-(3-methyloxetan-3-yl)thieno[2,3-b]pyridine-2-carboxamide]
6.11 | 62% | Cc1nc2sc(C(=O)NC3CC3)c(Br)c2c(C)c1Cl [Compound 49, 3-bromo-5-chloro-N-cyclopropyl-4,6-dimethylthieno[2,3-b]pyridine-2-carboxamide]
< 5.00 | 43% | Cc1nc2sc(C(=O)NCC(C)(C)O)c(C3CC3)c2c(C)c1Cl [Compound 50, 5-chloro-3-cyclopropyl-N-(2-hydroxy-2-methylpropyl)-4,6-dimethylthieno[2,3-b]pyridine-2-carboxamide]
< 5.00 | – | Cc1nc2sc(C(=O)NC3CCS(=O)(=O)C3)c(C3CC3)c2c(C)c1Cl (stereo not drawn) [Compound 51, 5-chloro-3-cyclopropyl-N-(1,1-dioxidotetrahydrothiophen-3-yl)-4,6-dimethylthieno[2,3-b]pyridine-2-carboxamide]
5.80 | 60% | Cc1nc2sc(C(=O)NC3CCOC3)c(C3CC3)c2c(C)c1Cl (stereo not drawn) [Compound 52, 5-chloro-3-cyclopropyl-4,6-dimethyl-N-(tetrahydrofuran-3-yl)thieno[2,3-b]pyridine-2-carboxamide]
